Experimental data: US20240197666A1, “DITERPENOID COMPOUNDS THAT ACT ON PROTEIN KINASE C (PKC)” (K-Gen Therapeutics, Inc., priority 2021, published 2024)

Tests used:
[1] = target: T1, C1b domain of human PKCε (Homo sapiens, UniProt Q02156); assay: biochemical; format: binding; details: 3H-PDBu competition
T1 construct: Genes encoding C1b domains of human PKCα, δ, ε, θ, and PKD1 (PKCμ) were synthesized; made in house; host or cells: E. coli BL21(DE3)
Experimental: (§1) Compounds described in this disclosure were tested for binding affinity to C1b domain of PKC isoforms. Compound binding affinity to C1b domain of PKC isoforms was derived from competitive binding assay using radioactive tracer ^3H-PDBu and recombinant GST-C1b or full-length of human PKC proteins based on modified procedures from Methods in Molecular Biology, vol.
(§2) Genes encoding C1b domains of human PKCα, δ, ε, θ, and PKD1 (PKCμ) were synthesized and inserted into pGEX-2TK or pGEX-4T1 vectors for expression and production of GST-C1b proteins in E. coli BL21(DE3) via IPTG induction. The target proteins were purified by glutathione sepharose 4B and followed by ion exchange chromatography if needed to achieve purity >70%. Aliquots of the purified proteins were stored at −80 degree for binding assay (storage buffer: 20 mM Tris pH 8.0, 200 mM NaCl, 10% glycerol, 1 mM DTT).
(§3) The plate was incubated at 37° C. on a shaker at 300 rpm for 10 minutes and then put on ice for 20 minutes. […] The bottom of the filter plate was sealed and 50 μL of MicroScint-20 (PerkinElmer) cocktail was added to each well. ^3H-PDBu trapped in each well was counted using PerkinElmer MicroBeta2 Reader. Data were analyzed using GraphPad Prism5 with the model “log(inhibitor) vs. response-variable slope” to fit the IC50, and then IC50 was transformed to Ki using Cheng-Prusoff equation: Ki=IC50/(1+added radio ligand/Kd). Kd is the binding affinity of each protein preparation to ^3H-PDBu, determined experimentally.

[2] = test system: Namalwa (Lymphoma); assay: Proliferation of Namalwa; format: cell-based
Experimental: (§4) The diterpenoid compounds were tested in A549, a non-small cell lung cancer cell line harboring a K-Ras activating mutation. Briefly, A549 cells at a density of 1,000 cells/well were seeded in 96-well plates and incubated at 37° C. for 24 hours. A series of different concentrations of compound stocks (500×) were prepared by 3-fold serial dilution in DMSO. These compounds were further diluted in culture media and then added to cells so that the final DMSO concentration was not exceeding 0.25%. After 96 hours of incubation, 50 μL of CellTiter Glo reagent (Promega) was added to each well and luminescence was measured after 10 minutes using EnVision (PerkinElmer). Luminescence from cells treated with DMSO alone was set as Max and % of inhibition was calculated as follows: Inhibition %=(Max-Sample value)/Max×100. Data was analyzed using XL-fit software (ID Business Solutions Ltd.) and IC50, relative IC50, and % of top inhibition was calculated. Some of the compounds in this disclosure were very potent in blocking proliferation of A549 lung cancer cells at low nM range. In addition, potency of inhibiting A549 proliferation correlated well with its binding affinity to PKCs for this series of compounds. In other words, higher affinity binders had stronger inhibitory effects on A549 proliferation. This further support the notion that activation, rather than inhibition, of certain PKC isoforms is required to block proliferation of cancer cells, some of which may harbor K-Ras mutations. This is in sharp contrast to previous literature and common belief that inhibition of PKC is necessary to block cancer cell growth (Kang, 2014, New Journal of Science, 2014:1-36). Data presented here is in agreement with recent findings that many loss-of-function but not gain-of-function mutations of PKC isoforms have been identified in many human cancers (Antal et al., 2015, Cell, 160:489-502).
(§5) The compounds in this disclosure were tested for their potency in blocking proliferation of a few other cancer cells lines, including K-Ras mutant pancreatic cell lines Panc2.13 and KP-4, leukemia cell line HL-60, and lymphoma cell lines Namalwa and Mino. Similar procedures as in Example 67 were followed. Initial cell numbers seeded in 96-well plates were different for different cell lines: 3000 cells/well for Panc2.13; 800-1000 cells/well for KP-4; 5000 cells/well for HL-60; 5000-10000 cells/well for Namalwa and Mino. A ratio of (IC50 of K101)/(IC50 of compound) (data in parenthesis in Table 5) was used to normalize the compound potency from different assay batches to a common comparator K101.

[3] = test system: NFκB-driven transcription in HeLa-NFκB luciferase reporter cell line; assay: NFκB luciferase reporter assay; details: Homo sapiens, HeLa, 16 h, read-out: NFκB-luc HeLa cells EC50 (μM)
[4] = test system: Hela cells; assay: In vitro scratch wound healing assay; format: cell-based; details: 24h
Experimental: Scratch wound healing assay creates a gap by scratching a confluent monolayer of cells to mimic a wound and then measures the ability of cells to fill up the gap (wound) in the presence of DMSO or test compounds. 1.2-1.5×10^5 Hela cells in 1 mL media RPMI-1640 with 10% FBS were seeded in 24-well plates. Cells were starved for overnight in the same media without FBS when cells became confluent. After starvation, a scratch was made in the middle of the well and the plates were washed three times to remove detached cells. DMSO or different concentrations of compounds were diluted and added to the cells. The assay plates were put into Incucyte S3 and scanned with 4× scanner setting regularly. The imaging results were exported and the wound area was analyzed by ImageJ. Wound healing or closure was calculated by the following formula: wound healing %=(wound area at 0h−wound area at 24h)/wound area 0h*100%. Relative wound healing was calculated by dividing wound healing % of compound treatment to that of DMSO*100%.

[5] = test system: Mino (Lymphoma); assay: Proliferation of Mino; format: cell-based
Experimental: as §4, §5

[6] = test system: A549 cell line; assay: Proliferation of A549 (CellTiter Glo); format: cell-based; details: Homo sapiens, A549, 96 h, read-out: IC50 μM (A549 Cell Line)
Experimental: as §4

[7] = test system: HL-60 (Leukemia); assay: Proliferation of HL-60; format: cell-based
Experimental: as §4, §5

[8] = target: T2, C1b domain of human PKCδ (Homo sapiens, UniProt Q05655); assay: biochemical; format: binding; details: 3H-PDBu competition
T2 construct: Genes encoding C1b domains of human PKCα, δ, ε, θ, and PKD1 (PKCμ) were synthesized; made in house; host or cells: E. coli BL21(DE3)
Experimental: as §1, §2, §3

[9] = target: T3, C1b domain of human PKD1 (PKCμ) (Homo sapiens, UniProt Q15139); assay: Competitive 3H-PDBu binding assay, C1b domain of PKD1 (PKCμ); details: 3H-PDBu competition
T3 construct: Genes encoding C1b domains of human PKCα, δ, ε, θ, and PKD1 (PKCμ) were synthesized; made in house; host or cells: E. coli BL21(DE3)
T3 sequence (Q15139 270-320 limits assumed): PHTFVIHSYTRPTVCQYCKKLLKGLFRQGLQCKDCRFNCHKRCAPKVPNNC
Experimental: as §1, §2, §3

T2 sequence (Q05655 230-280 limits assumed): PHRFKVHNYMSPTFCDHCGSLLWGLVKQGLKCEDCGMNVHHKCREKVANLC
T1 sequence (Q02156 242-292 limits assumed): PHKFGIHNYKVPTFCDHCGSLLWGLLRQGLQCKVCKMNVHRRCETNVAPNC

Row | Compound | IC50 [6] [µM] | Ki [8] [nM] | Ki [9] [nM] | other results
1 | CC1=C[C@H]2[C@@]3(O)[C@H](C)C[C@]4(OC(=O)[C@@H](N)C(C)(C)c5ccc(C(F)(F)F)cc5)[C@H]([C@@H]3C=C(CO)C[C@]2(O)C1=O)C4(C)C | 0.03 to 0.06 |  |  | Ki [1]: 10 to 30 nM; ratio (IC50 of K101)/(IC50 of compound) Namalwa [2]: 3.5; IC50 ([2]; read-out: IC50 Namalwa (Lymphoma)): 10 to 30 nM; EC50 [3]: 0.06 to 0.1 µM; Relative wound healing to control (%) ([4]; 20 nM): 213%; Relative wound healing to control (%) ([4]; 60 nM): 134%; Relative wound healing to control (%) ([4]; 200 nM): 201%; ratio (IC50 of K101)/(IC50 of compound) Mino [5]: 15.7; IC50 ([5]; Homo sapiens, MINO, read-out: IC50 Mino (Lymphoma)): 1 to 10 nM; ratio (IC50 of K101)/(IC50 of compound) HL-60 [7]: 12; IC50 ([7]; Homo sapiens, HL-60, read-out: IC50 HL-60 (Leukemia)): 10 to 30 nM
2 | CC1=C[C@H]2[C@@]3(O)[C@H](C)C[C@]4(OC(=O)C[C@@H](N)CCc5ccccc5)[C@H]([C@@H]3C=C(CO)C[C@]2(O)C1=O)C4(C)C | 0.6 to 1 | 10 to 30 |  | 
3 | CC1=C[C@H]2[C@@]3(O)[C@H](C)C[C@]4(OC(=O)[C@H](N)CCCc5ccccc5)[C@H]([C@@H]3C=C(CO)C[C@]2(O)C1=O)C4(C)C | 0.2 to 0.6 |  | 10 to 30 | 
4 | CC1=C[C@H]2[C@@]3(O)[C@H](C)C[C@]4(OC(=O)[C@@H](O)Cc5ccccc5)[C@H]([C@@H]3C=C(CO)C[C@]2(O)C1=O)C4(C)C | 0.2 to 0.6 |  | 10 to 30 | 
5 | CC1=C[C@H]2[C@@]3(O)[C@H](C)C[C@]4(OC(=O)[C@H](N)CCc5ccc(C(F)(F)F)cc5)[C@H]([C@@H]3C=C(CO)C[C@]2(O)C1=O)C4(C)C | 0.2 to 0.6 |  | 10 to 30 | 
6 | CC1=C[C@H]2[C@@]3(O)[C@H](C)C[C@]4(OC(=O)C[C@H](N)Cc5ccccc5)[C@H]([C@@H]3C=C(CO)C[C@]2(O)C1=O)C4(C)C | 1 to 2 | 10 to 30 |  | 
7 | CC1=C[C@H]2[C@@]3(O)[C@H](C)C[C@]4(OC(=O)[C@H](N)CCCCCCc5ccc(C(F)(F)F)cc5)[C@H]([C@@H]3C=C(CO)C[C@]2(O)C1=O)C4(C)C | 0.06 to 0.1 |  | 10 to 30 | Ki [1]: 60 to 100 nM
8 | CC1=C[C@H]2[C@@]3(O)[C@H](C)C[C@]4(OC(=O)[C@@H](N)CCCCCCCCc5ccccc5)[C@H]([C@@H]3C=C(CO)C[C@]2(O)C1=O)C4(C)C | 0.001 to 0.01 | 10 to 30 |  | 
9 | CN[C@@H](CC1CCCCC1)C(=O)O[C@@]12C[C@@H](C)[C@@]3(O)[C@@H](C=C(CO)C[C@]4(O)C(=O)C(C)=C[C@@H]34)[C@@H]1C2(C)C | 0.2 to 0.6 | 10 to 30 |  | 
10 | CC1=C[C@H]2[C@@]3(O)[C@H](C)C[C@]4(OC(=O)[C@H](N)CCCCCCc5ccc(C(F)F)cc5)[C@H]([C@@H]3C=C(CO)C[C@]2(O)C1=O)C4(C)C | 0.1 to 0.2 | 10 to 30 | 10 to 30 | 
